Source: publication PMC6835155, “Lessons from LIMK1 enzymology and their impact on inhibitor design” (Biochemical Journal, 2019)
Like-named read-outs stand apart in the source and are kept apart here.

Legend:
[1] = target: T1, LIMK1KD (Homo sapiens, UniProt P53667); assay: Differential (dynamic) scanning fluorimetry (DSF) assay, LIMK1KD; assay type: binding; details: 2 µM LIMK1KD, compound 10 µM, single shot; for ΔTm at 10 µM: read-out: TM Shift LIMK1 (K)
T1 construct: His6 (N, cleaved yes); made in house; host or cells: baculovirus; Sf9 for virus, TriEx insect cells for expression
T1 sequence (P53667 330-637): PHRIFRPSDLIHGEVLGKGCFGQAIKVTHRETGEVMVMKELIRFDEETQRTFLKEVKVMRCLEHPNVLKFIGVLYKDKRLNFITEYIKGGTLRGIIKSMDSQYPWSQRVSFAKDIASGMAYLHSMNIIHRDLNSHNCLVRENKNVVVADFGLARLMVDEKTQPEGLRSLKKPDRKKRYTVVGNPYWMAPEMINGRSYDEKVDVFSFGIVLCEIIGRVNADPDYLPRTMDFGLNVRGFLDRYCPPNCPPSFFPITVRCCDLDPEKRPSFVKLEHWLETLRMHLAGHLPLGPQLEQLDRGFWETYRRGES

[2] = target: T2, LIMK2KD (Homo sapiens, UniProt P53671); assay: Differential (dynamic) scanning fluorimetry (DSF) assay, LIMK2KD; assay type: binding
T2 construct: The cDNA coding for LIMK2 residues 330 to 632 was PCR amplified; His6 (N, cleaved yes); made in house; host or cells: baculovirus; Sf9 for virus, TriEx insect cells for expression
T2 sequence (P53671 330-632): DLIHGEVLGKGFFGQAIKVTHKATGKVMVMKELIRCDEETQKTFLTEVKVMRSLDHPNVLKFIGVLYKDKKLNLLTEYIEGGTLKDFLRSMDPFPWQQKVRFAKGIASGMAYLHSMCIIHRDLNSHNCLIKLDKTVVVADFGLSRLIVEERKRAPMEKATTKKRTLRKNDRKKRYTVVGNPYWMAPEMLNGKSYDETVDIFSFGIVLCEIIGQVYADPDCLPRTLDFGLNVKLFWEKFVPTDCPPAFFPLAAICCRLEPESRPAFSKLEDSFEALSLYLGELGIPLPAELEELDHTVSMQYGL

[3] = LIMK2KD, compound 10 µM, single shot, read-out: TM Shift LIMK2 (K)
[4] = LIMK2KD, compound 10 µM, single shot
[5] = LIMK2KD, compound 10 µM, single shot, 10 µM

Compound | ΔTm at 10 µM [1] [°C] | ΔTm at 10 µM [2, 3] [°C] | TM Shift LIMK1 (K) [1] [K] | TM Shift LIMK2 (K) [2, 4] [K] | other results
CNC(=O)c1ccc(C)c(-n2c(C)cc(OCc3ccc(F)cc3F)c(Br)c2=O)c1 [PH-797804] | 1.3 | 0.1 |  |  | 
CCS(=O)(=O)c1cccc(-c2cc(C(=O)NC3CCN(C)CC3)c(C)c3[nH]c4ncc(C)cc4c23)c1 [TAK-901] | 3.7 | 0.3 |  |  | 
Cc1nc(Nc2ncc(C(=O)Nc3c(C)cccc3Cl)s2)cc(N2CCN(CCO)CC2)n1 [Dasatinib] | 7 |  |  |  | ΔTm at 10 µM ([2]; read-out: TM Shift LIMK2 (K), LIMK2KD, compound 10 µM, single shot): 1.7 °C
O=C(O)c1ccc(Nc2ncc3c(n2)-c2ccc(Cl)cc2C(c2c(F)cccc2F)=NC3)cc1 [MLN8054] | -0.4 | 1 |  |  | 
CN(C)c1ccc(-c2nc3ncc(Cl)c(N4CCN(CC(=O)Nc5nccs5)CC4)c3[nH]2)cc1 [CCT129202] |  |  | 2.4 | 4.6 | 
Cc1ccc(C(=O)Nc2ccc(CN3CCN(C)CC3)c(C(F)(F)F)c2)cc1C#Cc1cnc2cccnn12 [Ponatinib (AP24534), Ponatinib] | 5 | 4.6 |  |  | 
CCN(CC)CCNC(=O)c1c(C)[nH]c(/C=C2\C(=O)Nc3ccc(F)cc32)c1C [Sunitinib] | 1.8 |  |  |  | TM Shift LIMK2 (K) [2, 5]: -0.1 K
Cn1cnc(N)c2ncnc1-2 [3-Methyladenine] | 0.4 | 0.5 |  |  | 
Cn1c(=O)c(F)c(Nc2ccc(I)cc2F)c2c(=O)n(C[C@@H](O)CO)cnc21 [TAK-733] | -0.5 | 0.3 |  |  | 
CC(C)n1nc(-c2ccc3oc(N)nc3c2)c2c(N)ncnc21 [INK 128 (MLN0128)] | 1.4 | 0.3 |  |  | 
CCOc1ccn(-c2ccc(F)cc2)c(=O)c1C(=O)Nc1ccc(Oc2ccnc(N)c2Cl)c(F)c1 [BMS-777607] | 3.8 | -0.2 |  |  | 
O=C1NC(=O)/C(=C/c2ccc3c(c2)OC(F)(F)O3)S1 [AS-604850] |  |  | 0.3 | 2.2 | 
CCCS(=O)(=O)Nc1ccc(F)c(C(=O)c2c[nH]c3ncc(-c4ccc(Cl)cc4)cc23)c1F [Vemurafenib (PLX4032, RG7204), Vemurafenib] | 1.5 | 6 |  |  | 
C=CC(=O)Nc1cccc(Oc2nc(Nc3ccc(N4CCN(C)CC4)cc3OC)ncc2Cl)c1 [WZ4002] | 1 | 1.8 |  |  | 
CCN(CC)CCCC(C)Nc1nc(C)cc(Nc2ccc3nc(C)cc(N)c3c2)n1 (stereo not shown) [NSC 23766] |  |  | 0.0 | -2.2 | 
Cc1cnc(NC(=O)Nc2cc(Br)c(C)cc2OC[C@@H]2CNCCO2)cn1 [Rabusertib] |  |  | -1.1 |  | TM Shift LIMK2 (K) [2, 5]: 0.2 K
COc1ccc(-c2nc(N3CCOCC3)c3sc(CN(C)c4ncc(C(=O)NO)cn4)cc3n2)cn1 [CUDC-907] | 0.3 | -0.1 |  |  | 
CC(C)NC[C@@H](C(=O)N1CCN(c2ncnc3c2[C@H](C)C[C@H]3O)CC1)c1ccc(Cl)cc1 [Ipatasertib] |  |  | 2.3 |  | TM Shift LIMK2 (K) [2, 5]: 2.3 K
Cc1cc(Nc2cc(CN3CCOCC3)c3nc(C)c(Cc4ccc(Cl)cc4F)n3n2)n[nH]1 [Gandotinib] |  |  | 5.4 |  | TM Shift LIMK2 (K) ([2]; LIMK2KD, compound 10 µM, single shot, listed as gandotinib, 10 µM): −0.5 K
NC(=O)c1cccc(-c2cc(Nc3ccc(OC(F)(F)F)cc3)ncn2)c1 [GNF-2] |  |  | -1.0 | 0.9 | 
CC(C)N(CCC(=O)c1ccc2ccccc2c1)Cc1ccccc1.Cl [ZM 39923 HCl] |  |  | 0.2 | -1.4 | 
Nc1cccc(-c2cc3c(Oc4cccc(O)c4)ncnc3[nH]2)c1 [TWS119] |  |  | 5.2 | 4.1 | 
N#Cc1ccc2[nH]c(O)c(-c3ccc(CN4CCOCC4)cn3)c2c1 [AZD1080] | 0.5 | 2.3 |  |  | 
CNC(=O)c1cc(Oc2ccc(NC(=O)Nc3ccc(Cl)c(C(F)(F)F)c3)c(F)c2)ccn1 [Regorafenib (BAY 73-4506), Regorafenib] | 0 | 0.7 |  |  | 
N#CCNC(=O)c1ccc(-c2ccnc(Nc3ccc(N4CCOCC4)cc3)n2)cc1 [Momelotinib] |  |  | 6.3 |  | TM Shift LIMK2 (K) [2, 5]: 4.2 K
C[C@@H]1COC(Nc2ccc3ncnc(Nc4ccc(OCc5nccs5)c(Cl)c4)c3c2)=N1 [Varlitinib] | 0.9 | 0.8 |  |  | 
O=C1NC(=O)C(c2ccccc2[N+](=O)[O-])=C1Nc1ccc(O)c(Cl)c1 [SB415286] |  |  | 1.7 | 0.9 | 
Nc1ncnc2c1c(-c1cnc3[nH]ccc3c1)nn2C1CCCC1 [PP121] |  |  | 3.6 | 2.7 | 
O=C1NC(=O)/C(=C/c2ccc(-c3ccc(F)cc3O)o2)S1 [AS-252424] |  |  | -0.1 | 3.0 | 
